The values that follow come from paper PMC6712804 (BMC Cancer, 2019).

Several values for one entry are separate records, joined by “and”; a condition that tells them apart may be missing. Equal values may be shown once.

For data set [1], the system named is MYCN, MCL-1, PARP, LC3I, LC3II, BRD-4, bcl-2 and BAX gene expression in BE-2c cells. As to the kind of experiment: RNAseq gene expression analysis. The class given is cell-based. Details: RNAseq expression value, MYCN gene / RNAseq expression value, MCL-1 gene / RNAseq expression value, LCII gene / RNAseq expression value, LCI gene / RNAseq expression value, BRD-4 gene / RNAseq expression value, Bcl-2 gene / RNAseq expression value, BAX gene: unit not given here. The note with it: 18 h, TEM alone 1 μM. Here is the method:
Total RNA was extracted using the RNeasy Micro Kit (Qiagen, Germantown, MD). Nano Drop was used to measure RNA concentration and purity and integrity was evaluated using Agilent Bioanalyzer System (Agilent Technologies, Santa Clara, CA). RNA sequencing and library preparation was performed using Maestro TruSeq Application (Perkin Elmer, Waltham, MA). Parameters used were optimized for 50 bp single-end reads with 20 million reads per sample. […] Gene expression analysis are reported for those pathways where protein analysis was performed (MYCN, MCL-1, PARP, LC3I, LC3II, BRD-4, bcl-2, and BAX).

In data set [2] the test system is BE2-c subcutaneous tumors. The experiment in a line: Anti-tumor activity in BE2-c tumor bearing NSG mice. Conditions: follow up study, dosing three times per week. The data set is classed as in vivo. As for the experimental part:
A follow up study of the combination integrated control groups and modified dosing of MP1 plus TEM to three times per week at the doses described above. […] Tumor measurements were performed daily and treatments began on the first day the tumor achieved 2 mm^3 in size.

For data set [3] the following is noted: compared to untreated controls.
Description: NSG mice were injected subcutaneously with 5 × 10^5 BE2-c cells in a 50:50 PBS/Matrigel® solution. […] Bone marrow was collected at necropsy for a CFU-GM assay to assess bone marrow toxicity.
The test system of data set [4] is OXPHOS (OCR) and glycolysis (ECAR) in BE-2c cells. The experiment in a line: Metabolic flux analysis and cell energy phenotype (XFp Seahorse). The note with it: 18 h, metformin 5 mM. The class given is cell-based. As for the experimental part: Six wells of an XFp culture plate were seeded with 15,000 BE-2c cells/well in 80 μL DMEM with 10% FBS. […] The XFp Cell Energy Phenotype assay utilizes oligomycin as an inhibitor of ATP synthase and FCCP which is a mitochondrial uncoupling reagent. Oligomycin inhibits mitochondrial ATP production leading to a compensatory increase in glycolysis to meet energy demands. FCCP depolarizes the mitochondrial membrane driving the oxygen consumption rates higher as mitochondria restore polarization. The results were graphed on a grid indicating degree of aerobic/glycolytic metabolism and energetic/quiescent phenotypes.

In the case of `CO[C@H]1C[C@@H]2CC[C@@H](C)[C@@](O)(O2)C(=O)C(=O)N2CCCC[C@H]2C(=O)O[C@H]([C@H](C)C[C@@H]2CC[C@@H](OC(=O)C(C)(CO)CO)[C@H](OC)C2)CC(=O)[C@H](C)/C=C(\C)[C@@H](O)[C@@H](OC)C(=O)[C@H](C)C[C@H](C)/C=C/C=C/C=C/1C` [TEM, temsirolimus], in data set [1], the “Change (fold change treatment over control), BAX gene” value is −1.14; the “Change (fold change treatment over control), BRD-4 gene” value is on record as −1.06; the “Change (fold change treatment over control), Bcl-2 gene” value is on record as 1.45; the “Change (fold change treatment over control), MCL-1 gene” value was −1.12. Besides, in data set [1], the “Change (fold change treatment over control), MYCN gene” value came out at 1.0 and the “Change (fold change treatment over control), PARP1 gene” value is on record as −1.2. Besides, in data set [1] (replicates #1-#3), the “RNAseq expression value, BAX gene” value was 42.7 and 37.3 and 40.6; the “RNAseq expression value, BRD-4 gene” value is 70.4 and 71.4 and 72.7; the “RNAseq expression value, Bcl-2 gene” value is 49.2 and 52.0 and 47.7; the “RNAseq expression value, LCI gene” value was 5.1 and 4.4 (2×). Also, in data set [1] (replicates #1-#3), the “RNAseq expression value, LCII gene” value is 92.7 and 92.5 and 89.7; the “RNAseq expression value, MCL-1 gene” value is 281 and 282 and 276; the “RNAseq expression value, MYCN gene” value is 2264 and 2140 and 2232; the “RNAseq expression value, PARP1 gene” value is 580 and 617 and 599. In addition, the Complete responses entry in data set [2] is listed as “no complete responses”. Besides, the “Bone marrow toxicity (CFU-GM assay)” value in data set [3] was “unaffected”.

With `CN(C)C(=N)N=C(N)N` [metformin], in data set [4], the “Effect on OXPHOS and glycolysis” value was “uncoupled OXPHOS metabolism without effects on glycolysis”.
